Reference: patent EP1143968B9 (priority 1999, dated 2000)
Where two headings read alike, the source gives them in different places.

Columns and labels:
[1] = Relative water solubility by reverse phase HPLC; details: for retention time: reverse phase column, silica with diphenylmethyl functionalities, mobile phase acetonitrile/water, longer retention = less water soluble
Procedure: The water solubility of 7-hexanoyl taxol relative to paclitaxel was determined via HPLC analysis using a reverse phase column and illustrations of the HPLC traces are shown in Fig. 2. The column employed was made of silica with the hydrophilic Si-OH functionalities converted to hydrophobic diphenylmethyl functionalities. The mobile phase was acetonitrile/water. In this column, a hydrophilic or water soluble test material is retained primarily in the aqueous mobile phase, resulting in the water soluble compounds eluting from the column earlier than hydrophobic or water insoluble compounds.

[2] = test system: coronary arteries of pigs; assay: In vivo testing of drug-loaded polymer stents in pig coronary arteries; details: for % Intimal Growth / % Diameter Stenosis: metal support/polymer segments stent, 1500 µg drug; for % Intimal Growth / % Diameter Stenosis / reduction in percent stenosis compared to the stent containing paclitaxel: 28 days; for % Diameter Stenosis: morphometric analysis; for reduction in percent stenosis compared to the stent containing paclitaxel: pigs
Procedure: In studies performed in support of the invention, polymeric materials containing 7-hexanoyl taxol were prepared from an acrylate/methyacrylate monomer mixture and polymerized using a methacrylate crosslinker, as described in Example 2. 7-hexanoyl taxol was incorporated into the polymer by contacting the polymer with a concentrated solution of the 7-hexanoyl taxol in a suitable organic solvent. Such polymeric materials, and polymeric materials similarly formed but with paclitaxel rather than 7-hexanoyl taxol, were used in combination with a support stent, as illustrated in Fig. 3C. The test and control stents were placed in the coronary arteries of pigs, as described in Example 3, and were left in vivo for 28 days. A metal stent not carrying a polymeric material was also placed into an-artery. At the time of insertion of the test and control stents, the coronary artery was characterized using a computer-based coronary angiography analysis system (Umans, V.A., et al., JACC 21(6):1382-1390, (1993)). Boundaries of a selected coronary artery segment were detected automatically from optically magnified and video-digitized regions of interest. The catheter used for insertion of the stents was used as a scaling device to determine the dimensions of the artery at the site of implantation. The original vessel diameter at the time of implantation was determined.
After the 28 day test period, the arteries were then explanted from the pig and pressure fixed for morphometric analysis. […] The percent stenosis was taken as one minus the stented vessel's minimum lumen diameter divided by the diameter of an unstented reference vessel time one-hundred. The percent intimal growth was also determined from the following equation: 1-[(stented vessel's minimum lumenal diameter)/(diameter of stented portion prior to stent placement)]*100. The balloon to artery ratio was also determined as a measure of the degree of distension of the vessel by the balloon.
In another study in support of the invention, stents were prepared as described in Examples 2 and 3. The polymeric materials carried either 7-hexanoyl taxol, paclitaxel or 7-xylosyltaxol. […] The stents were placed in coronary arteries of pigs, according to the procedure described above. After the test period, the percent diameter stenosis and neointimal thickness of the arteries were determined. The percentage of diameter stenosis was determined by two procedures, via quantative coronary angiography (QCA) and via morphometric evaluation of the vessels. The later procedure is described in Example 3. The former procedure, QCA, was performed according to the procedure of Umans, et al. described above, with lumen dimensions determined prior to explanting the vessels for morphometric analysis.
A polymer sleeve, prepared as described in Example 2, was placed about a metal, corrugated stent. The polymer sleeve contained 1500 µg of 7-hexanoyl taxol.
The two-drug loaded stents and two control metal stents with no polymer sleeve were placed into the coronary arteries of healthy Domestic Farm Swine pigs (Pork Power, Inc.) by conventional techniques using a commercially available catheter (Advanced Cardiovascular Systems). The stents were imaged during and after the insertion procedure to ensure proper placement using conventional angiographic imaging techniques. The metal control stents were placed in two different pigs, in one pig the stent was positioned in the left anterior descending artery and in the other pig in the right coronary artery. The comparative control stent containing paclitaxel was placed in one animal in the right coronary artery. The test stents containing 7-hexanoyl taxol were placed in two pigs, one stent in the right coronary artery and the other stent in the other pig in the left circumflex artery.

melanoma/M14 = assay: cells; type: cell-based
Procedure: (§1) In studies performed in support of the invention, the in vitro cytotoxicity of 7-hexanoyl taxol was compared to paclitaxel. As described in Example 1, LC50 values, which signify the concentration of drug at which 50% of the cells are killed, were determined in five cell lines.
(§2) A suspension of each cell line which was diluted according to the particular cell type and the expected target cell density (5,000-40,000 cells per well based on cell growth characteristics) was added by pipet (100 µL) into a 96-well microtiter plate. The cells were allowed a pre-incubation period of 24 hours at 37°C for stabilization. At the end of the pre-incubation period (T0), dilutions of 7-hexanoyl taxol or paclitaxel were added in 100 µL aliquots to the microtiter plate wells. The cells were incubated in the presence of the drug for 48 hours under a 5% CO2 atmosphere at 100% humidity. The cells were assayed using the sulforhodamine B assay. A plate reader was used to read the optical densities.
(§3) The LC50 values were taken as the concentration of compound where 100 x (T-T0)/T0 = -50.

[3] = test system: non-small cell lung cancer/NCI H226; assay: cells; type: cell-based
Procedure: as §1, §2, §3

ovarian cancer/OVCAR-5 = assay: cells; type: cell-based
Procedure: as §1, §2, §3

melanoma/SK-MEL-2 = assay: cells; type: cell-based
Procedure: as §1, §2, §3

colon cancer/HT 29 = assay: cells; type: cell-based
Procedure: as §1, §2, §3

[4] = Table 3 study, stents in coronary arteries of pigs

CCCCCC(=O)OC1CC2OCC2(OC(C)=O)C2C(OC(=O)c3ccccc3)C3(O)CC(OC(=O)C(O)C(NC(=O)c4ccccc4)c4ccccc4)C(C)=C(C(OC(C)=O)C(=O)C12C)C3(C)C (stereo not drawn) [7-hexanoyl taxol]
water solubility relative to paclitaxel ([1]; from the hydrophobic shift of HPLC retention time): less water soluble than paclitaxel
retention time [1]: 30.9 min
intimal thickening compared to paclitaxel [2, 4]: less
percent stenosis compared to paclitaxel [2, 4]: lower
percent diameter stenosis compared to the water-soluble derivative, 7-xylosyltaxol ([2]; Table 3 study, stents in coronary arteries of pigs, QCA and morphometric evaluation): considerably lower
% Intimal Growth ([2]; left circumflex artery): 2.3%
% Diameter Stenosis ([2]; left circumflex artery): 16%
reduction in percent stenosis compared to the stent containing paclitaxel ([2]; one case (of the two stents with 7-hexanoyl taxol)): two-fold
% Intimal Growth ([2]; right coronary artery): -7.1%
% Diameter Stenosis ([2]; right coronary artery): 4%
reduction in percent stenosis compared to the stent containing paclitaxel ([2]; the other case (of the two stents with 7-hexanoyl taxol)): ~8 fold
CC50 (melanoma/M14; melanoma/M14, 48 hours with drug, read-out: LC50 (the source's name)): 1.1 µM
CC50 ([3]; non-small cell lung cancer/NCI H226, 48 hours with drug, read-out: LC50 (the source's name)): > 100 µM
CC50 (ovarian cancer/OVCAR-5; ovarian cancer/OVCAR-5, 48 hours with drug, read-out: LC50 (the source's name)): 50 µM
CC50 (melanoma/SK-MEL-2; melanoma/SK-MEL-2, 48 hours with drug, read-out: LC50 (the source's name)): > 100 µM
CC50 (colon cancer/HT 29; colon cancer/HT 29, 48 hours with drug, concentration at which 50% of the cells are killed, read-out: LC50 (the source's name)): 30 µM

CC(=O)O[C@H]1C(=O)[C@@]2(C)[C@H]([C@H](OC(=O)c3ccccc3)[C@]3(O)C[C@H](OC(=O)[C@H](O)[C@@H](NC(=O)c4ccccc4)c4ccccc4)C(C)=C1C3(C)C)[C@]1(OC(C)=O)CO[C@@H]1C[C@@H]2O [Paclitaxel, reference compound]
retention time [1]: 18.5 min
% Intimal Growth ([2]; right coronary artery): 29.5%
% Diameter Stenosis ([2]; right coronary artery): 34%
CC50 (melanoma/M14; 48 h, read-out: LC50): 100 µM
CC50 ([3]; Homo sapiens, NCI-H226, 48 h, read-out: LC50): 70 µM
CC50 (ovarian cancer/OVCAR-5; Homo sapiens, OVCAR-5, 48 h, read-out: LC50): > 100 µM
CC50 (melanoma/SK-MEL-2; Homo sapiens, SK-MEL-2, 48 h, read-out: LC50): 100 µM
CC50 (colon cancer/HT 29; Homo sapiens, HT-29, 48 h, read-out: LC50): 30 µM
